Data reported in PMC8237267 (Journal of Medicinal Chemistry, 2021).
pIC50: −log10 of the molar value.

Key:
HDAC11 = target: T1, HDAC11 (Homo sapiens, UniProt Q96DB2); experiment: HDAC EMSA activity assay (Nanosyn); format: biochemical; details: read-out: IC50 HDAC11
T1 construct: The full-length human HDACs were recombinantly expressed and purified from SF9 insect cells; host or cells: SF9 insect cells
T1 sequence (Q96DB2 1-347): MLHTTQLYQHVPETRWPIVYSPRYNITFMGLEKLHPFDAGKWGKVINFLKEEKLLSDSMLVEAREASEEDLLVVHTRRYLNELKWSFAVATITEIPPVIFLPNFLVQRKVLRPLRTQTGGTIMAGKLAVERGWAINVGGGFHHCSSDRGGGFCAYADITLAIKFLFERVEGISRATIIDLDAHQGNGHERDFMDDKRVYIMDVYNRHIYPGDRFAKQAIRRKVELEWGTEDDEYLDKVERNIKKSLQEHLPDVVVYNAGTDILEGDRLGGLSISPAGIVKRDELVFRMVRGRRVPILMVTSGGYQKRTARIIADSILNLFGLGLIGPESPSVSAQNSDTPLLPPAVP

acetylation of α-tubulin = experiment: Immunofluorescence assay in HeLa cells; format: cell-based; details: 6 h, increasing doses
Procedure: (§1) HeLa cells were plated to subconfluency on a 96-well plate (clear bottom black from Fisher Scientific). As above, inhibitors were introduced following 24 h. The cells were washed with 1× PBS, fixed with 4% formaldehyde (Millipore Sigma), permeabilized with 1% Triton X-100 (Millipore Sigma), and blocked in 5% bovine serum albumin (BSA) (BioShop) for 1 h at room temperature. Following this treatment, the cells were incubated in a cocktail composed of acetylated α-tubulin mouse monoclonal (1:100 dilution, MD Millipore) and acetylated histone H3 (1:50 dilution, Ac-Lys18, Sigma) antibodies. Secondary antibodies anti-mouse Alexa Fluor 647 and anti-rabbit Alexa Fluor 488 were used for immunofluorescent detection. Cells were counterstained for nucleic acids using 4′,6-diamidino-2-phenylindole (DAPI) (ThermoFisher Scientific). The cells were imaged with a Cytation S63 spectrophotometer and the fluorescence intensity was determined using ImageJ (n = 3). Two-way ANOVA with Tukey’s multiple comparisons test were performed using GraphPad Prism 6.0 (GraphPad Software Inc.). A p-value ≤ 0.05 was considered significant.

[1] = test system: acetylation of histone H3; experiment: Immunofluorescence assay in HeLa cells; format: cell-based; details: 6 h, increasing doses
Procedure: as §1

[2] = Permeability by lipid-PAMPA; format: in vitro ADME; details: lecithin/dodecane, PBS pH 7.4, 16 h
Procedure: A 1.8% solution (w/v) of lecithin in dodecane was added to each acceptor plate well (top), followed by application of the artificial membrane and addition of 300 μL of PBS (pH 7.4) solution to each well of the acceptor plate. Compounds were added to the donor plate and incubated at 25 °C, 60 rpm for 16 h. After incubation, aliquots of 50 μL from each acceptor well and donor plate were transferred into a 96-well plate, vortexed at 750 rpm for 100 s and centrifuged at 3220g for 20 min. Compound concentrations and effective permeability (Pe) were determined by LC/MS/MS.

[3] = test system: primary T-PLL patient samples; experiment: Drug combination synergy in primary T-PLL patient samples; format: cell-based, human
Description: Primary T-PLL cells were isolated from peripheral blood (PB) of 10 T-PLL patients. All patients were diagnosed according to WHO criteria based on clinical features, immunophenotyping (flow cytometry and histochemisty; including TCL1 expression), and FISH/karyotyping.[71],[72] Samples were obtained from patients under IRB-approved protocols following written informed consent according to the Declaration of Helsinki. Collection and use of patient material have been approved for research purpose by the ethics committee of the University Hospital of Cologne (EudraCT-Nr.: #2008-001421-34 and AZ11-319) and Helsinki (303/13/03/01/2011).
PB mononuclear cells (PBMCs) of T-PLL samples were obtained by density gradient centrifugation (Histopaque; Sigma-Aldrich). All drug screening in primary T-PLL patient samples were conducted as previously described.[34],[73]

HDAC6 = target: T2, HDAC6 (Homo sapiens, UniProt Q9UBN7); experiment: HDAC EMSA activity assay (Nanosyn); format: biochemical; parameters: The full-length human HDACs were recombinantly expressed and purified from SF9 insect cells; host or cells: SF9 insect cells; details: EMSA (Nanosyn); read-out: IC50 HDAC6
T2 sequence (Q9UBN7 1-1215): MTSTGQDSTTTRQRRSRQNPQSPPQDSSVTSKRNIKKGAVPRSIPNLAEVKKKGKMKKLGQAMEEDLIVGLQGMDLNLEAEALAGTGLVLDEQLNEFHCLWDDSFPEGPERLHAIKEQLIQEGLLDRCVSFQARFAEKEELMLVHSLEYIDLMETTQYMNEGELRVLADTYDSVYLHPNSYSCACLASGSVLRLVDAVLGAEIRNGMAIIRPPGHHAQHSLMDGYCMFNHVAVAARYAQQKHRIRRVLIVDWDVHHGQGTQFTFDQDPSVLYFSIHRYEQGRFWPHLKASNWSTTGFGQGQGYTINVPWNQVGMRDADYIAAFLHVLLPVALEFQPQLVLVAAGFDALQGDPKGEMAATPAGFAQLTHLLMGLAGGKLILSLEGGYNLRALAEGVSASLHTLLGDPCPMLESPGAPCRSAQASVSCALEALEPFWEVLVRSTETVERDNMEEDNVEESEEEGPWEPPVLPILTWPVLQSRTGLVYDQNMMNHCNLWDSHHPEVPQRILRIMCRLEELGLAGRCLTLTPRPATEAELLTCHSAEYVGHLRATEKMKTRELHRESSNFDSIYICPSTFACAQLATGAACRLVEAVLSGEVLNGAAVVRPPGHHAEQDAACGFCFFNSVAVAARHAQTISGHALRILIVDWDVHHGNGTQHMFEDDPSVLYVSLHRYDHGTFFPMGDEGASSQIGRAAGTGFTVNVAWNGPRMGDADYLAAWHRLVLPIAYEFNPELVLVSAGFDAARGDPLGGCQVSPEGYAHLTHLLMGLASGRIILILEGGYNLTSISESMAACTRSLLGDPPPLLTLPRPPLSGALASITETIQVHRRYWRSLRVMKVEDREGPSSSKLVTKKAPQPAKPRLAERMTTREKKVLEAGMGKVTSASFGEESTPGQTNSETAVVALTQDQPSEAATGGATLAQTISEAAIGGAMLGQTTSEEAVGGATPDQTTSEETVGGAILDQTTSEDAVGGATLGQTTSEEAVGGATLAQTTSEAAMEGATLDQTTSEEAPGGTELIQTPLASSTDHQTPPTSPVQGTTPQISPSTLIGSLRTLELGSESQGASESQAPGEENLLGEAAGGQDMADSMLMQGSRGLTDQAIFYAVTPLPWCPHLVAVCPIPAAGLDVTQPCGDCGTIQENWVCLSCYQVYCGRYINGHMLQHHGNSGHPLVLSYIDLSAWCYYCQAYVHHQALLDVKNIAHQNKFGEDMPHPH

Compound: O=C(NO)c1ccc(CN(C2CC2)S(=O)(=O)c2cc(F)c(F)c(F)c2F)cc1 [Compound 14, 4-(((N-Cyclopropyl-2,3,4,5-tetrafluorophenyl)sulfonamido)methyl)-N-hydroxybenzamide]
- pIC50 (HDAC11): < 6.00
- acetylation of α-tubulin (immunofluorescence) (acetylation of α-tubulin): significant acetylation of α-tubulin was observed
- acetylation of histone H3 (immunofluorescence) [1]: no observable change in acetylation of histone H3
- PAMPA -Log Pe ([2]; listed as 14 (KT-531)): 5.44 ± 0.06
- PAMPA -Log Pe ([2]; listed as KT-531): 5.44
- combination with idasanutlin, bendamustine and venetoclax [3]: All combinations revealed synergistic relationships in patient samples
- pIC50 (HDAC6): 8.07
